The source of these data is patent US5382596A, “Substituted 2-aminotetralins” (priority 1993, dated 1995).

One test has as its target Dopamine D1 receptor (Bos taurus, UniProt Q95136). Nature of the test: biochemical. The test is classed as binding, bovine. To be noted: bovine caudate membranes, 3H-SCH23390, 37° C., 15 min; read-out: D1 K1. As for the experimental part: (§1) Membranes were prepared using a Brinkmann Polytron and collected by centrifugation. Membrane sources were bovine caudate (D2,D1) or rat cortex (α2). The membranes were washed, resuspended, and incubated at 37° C. for 30 min. in either the presence (rat cortex) of 1 μ/ml adenosine deaminase or absence (bovine caudate) of 0.1 μ/ml adenosine deaminase. Membranes were centrifuged, washed once and frozen at -70° C. until used. Immediately before use, the membranes were thawed, washed once, and resuspended to a final concentration of 0.5-2 mg/ml. Assays were initiated by addition of membranes. For D2 and D1 assays, the radioligands and conditions used were ^3 H-Spiperone (RT, 75 min.) and ^3 H-SCH23390 (37° C., 15 min.), respectively. For α2 assays, ^3 H-PAC (RT, 30 min.) was used Assays were terminated by filtration using a Brandel cell harvester over Whatman GF/B filters that had been pretreated with 0.1% polyethylenimine. […]

Test [1] deals with Dopamine D2 receptor (Bos taurus, UniProt P20288). Description: biochemical. The test is classed as binding, bovine. Particulars: for Ki: bovine caudate membranes, 3H-Spiperone, RT, 75 min, read-out: D2 K1. As for the experimental part: as §1
Dopamine D2 receptor, sequence (P20288 whole entry): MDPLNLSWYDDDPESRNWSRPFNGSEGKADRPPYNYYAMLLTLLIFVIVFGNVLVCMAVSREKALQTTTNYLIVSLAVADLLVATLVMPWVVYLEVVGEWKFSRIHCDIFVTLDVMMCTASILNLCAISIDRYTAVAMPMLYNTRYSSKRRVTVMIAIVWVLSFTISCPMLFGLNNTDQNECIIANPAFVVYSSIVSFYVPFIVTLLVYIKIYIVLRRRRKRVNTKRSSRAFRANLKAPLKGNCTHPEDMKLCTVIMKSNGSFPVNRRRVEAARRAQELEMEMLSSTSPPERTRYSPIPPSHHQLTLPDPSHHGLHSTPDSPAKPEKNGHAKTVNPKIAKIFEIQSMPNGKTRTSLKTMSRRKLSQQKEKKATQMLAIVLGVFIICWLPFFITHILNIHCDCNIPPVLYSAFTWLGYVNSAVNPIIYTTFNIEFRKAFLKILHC
For test [2], the target named is dopamine D2 receptor (Mus musculus, UniProt P61168). Description: biochemical. To be noted: for EC50: concentration that produces 50% of the maximal inhibition of twitch, mouse vas deferens, read-out: D2 A50. In kind it is biochemical. As for the experimental part:
Vasa deferentia from male BALB/C mice weighing approximately 30 g were removed and placed in isolated organ baths containing magnesium-free modified Krebs-Henseleit solution which was gassed with 95% O2 and 5% CO2 and maintained at 37° C. Tissues were set up under resting tension of 0.5 g and stimulated electrically at 60 volts, 0.1 Hz and 1 msec duration to produce a series of twitch responses. Tissues were pretreated with propranolol (1 μM) to block β-adrenoceptors, idazoxan (3 μM) to block α2 -adrenoceptors receptors, and ascorbic acid (100 μM) for 60 min before the addition of test compound.

Test [3] addresses adrenergic α2 receptor (Rattus norvegicus, UniProt P22909). Nature of the test: Adrenergic α2 in vitro functional test (rat vas deferens, inhibition of twitch). In kind it is biochemical. The method, then:
(§2) Vasa deferentia from male Sprague-Dawley rats weighing between 150-250 g were removed and placed in isolated organ baths containing Krebs-Henseleitsolution under a resting tension of 1 g. All other set up conditions were identical to those used for the mouse was deferens. Tissues were pretreated with propranolol (1 μM), ascorbic acid (100 μM) and the α1 -adrenergic antagonist prazosin (0.3 or 1 μM) for 60 min before the addition of test compound.

Test [4] relates to denervated supersensitive postsynaptic dopamine receptors. Nature of the test: In vivo functional test: contralateral circling in rats with unilateral 6-hydroxydopamine lesions of the substantia nigra. Also noted: species or system rat. Particulars: for ED50: contralateral circling, rats, unilateral 6-hydroxydopamine lesion. The text has this:
Dopamine agonists produce contralateral circling behavior in rats in which unilateral lesions of the substantial nigra are made by prior injection of 6-hydroxydopamine. The circling is thought to be mediated by stimulation of denervated supersensitive postsynaptic dopamine receptors (Marshall and Ungerstedt, 1977, Eur. J. Pharmacol., 41:361-367).

Test [5] has as its target T1, adrenergic α2 receptor (Rattus norvegicus, UniProt P22909).
T1 sequence (P22909 1-465): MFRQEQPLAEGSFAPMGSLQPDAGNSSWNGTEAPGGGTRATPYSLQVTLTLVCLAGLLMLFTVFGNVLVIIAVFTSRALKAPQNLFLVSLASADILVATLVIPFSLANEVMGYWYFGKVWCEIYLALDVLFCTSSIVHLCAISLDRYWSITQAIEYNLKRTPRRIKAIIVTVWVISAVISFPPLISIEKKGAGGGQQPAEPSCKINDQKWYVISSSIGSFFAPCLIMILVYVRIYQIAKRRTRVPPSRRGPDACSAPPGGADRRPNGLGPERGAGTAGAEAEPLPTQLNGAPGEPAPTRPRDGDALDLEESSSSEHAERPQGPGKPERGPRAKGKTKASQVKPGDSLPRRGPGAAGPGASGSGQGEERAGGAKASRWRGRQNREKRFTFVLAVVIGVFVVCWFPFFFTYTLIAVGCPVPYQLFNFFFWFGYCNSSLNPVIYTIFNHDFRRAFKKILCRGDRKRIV
Nature of the test: Adrenergic α2 in vitro functional test (rat vas deferens, inhibition of twitch). In kind it is biochemical. To be noted: concentration that produces 50% of the maximal inhibition of twitch; rat vas deferens; read-out: a2 A50. As for the experimental part:
as §2

Where two headings read alike, the source gives them in different places.

Dopamine D1 receptor, sequence (Q95136 whole entry): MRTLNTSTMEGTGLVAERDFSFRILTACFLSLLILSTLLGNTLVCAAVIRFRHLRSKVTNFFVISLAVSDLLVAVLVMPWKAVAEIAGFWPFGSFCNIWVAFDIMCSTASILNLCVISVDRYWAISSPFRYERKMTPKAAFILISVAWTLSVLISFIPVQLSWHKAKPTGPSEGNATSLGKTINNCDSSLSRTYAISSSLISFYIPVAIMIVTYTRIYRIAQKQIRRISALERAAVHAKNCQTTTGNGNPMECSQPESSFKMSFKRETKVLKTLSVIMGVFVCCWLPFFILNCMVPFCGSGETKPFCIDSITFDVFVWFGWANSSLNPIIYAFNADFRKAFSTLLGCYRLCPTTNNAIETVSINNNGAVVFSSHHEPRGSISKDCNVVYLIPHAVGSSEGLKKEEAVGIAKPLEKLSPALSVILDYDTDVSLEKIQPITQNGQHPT
dopamine D2 receptor, sequence (P61168 whole entry): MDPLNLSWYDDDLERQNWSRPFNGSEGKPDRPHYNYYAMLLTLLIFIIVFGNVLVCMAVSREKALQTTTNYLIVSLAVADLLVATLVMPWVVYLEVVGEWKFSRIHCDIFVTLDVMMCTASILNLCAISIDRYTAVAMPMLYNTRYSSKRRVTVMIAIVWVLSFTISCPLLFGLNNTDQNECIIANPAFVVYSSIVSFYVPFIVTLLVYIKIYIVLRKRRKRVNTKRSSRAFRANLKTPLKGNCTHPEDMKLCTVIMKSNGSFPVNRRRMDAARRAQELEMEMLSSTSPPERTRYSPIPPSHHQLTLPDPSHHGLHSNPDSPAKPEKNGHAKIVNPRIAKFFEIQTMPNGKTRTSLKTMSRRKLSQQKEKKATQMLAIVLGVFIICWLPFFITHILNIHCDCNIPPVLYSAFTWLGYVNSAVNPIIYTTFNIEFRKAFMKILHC

A word on the ED50: it is the dose at which the effect has come halfway, by size or by number of responders. A low value points to an effect at a small dose. As to `CCCN(CCOC)[C@H]1CCc2c(ccc(O)c2O)C1` [Example 4], the Ki on Dopamine D1 receptor was 7080 nM; on Dopamine D2 receptor [1], 363 nM. Moreover, the figures for the EC50 on dopamine D2 receptor [2] and on adrenergic α2 receptor [3] were 0.603 nM and 42.7 nM, respectively. Besides, in test [4], the ED50 is 0.006 µmol/kg.
In the case of `CCCN(CCOC(C)(C)C)[C@H]1CCc2c(ccc(O)c2O)C1` [Example 9, (S)-6-[[2-(1,1-dimethylethoxy)ethyl]propylamino]-5,6,7,8-tetrahydro-1,2-naphthalenediol], the Ki on Dopamine D1 receptor worked out at 8910 nM. Besides, at Dopamine D2 receptor [1], the “dopamine D2 receptor affinity (in words)” value is on record as “high affinity”, the “Selectivity Ratio (D1 K1/D2 K1)” value is 166 and the Ki was found to be 54 nM. The “D2 receptor selectivity (in words)” value on Dopamine D2 receptor [1] (D2 vs. D1) is listed as “high affinity, selectivity”. At dopamine D2 receptor [2], the “dopamine D2 receptor in vitro functional activity/potency (in words)” value is “high affinity, selectivity, specificity, and functional potency”; the “Specificity Ratio (a2 A50/D2 A50)” value is recorded as 1620; the EC50 is 0.089 nM. Also, at dopamine D2 receptor [2] (D2 vs. α2), the “D2 receptor specificity (in words)” value was “high affinity, selectivity, specificity”. Moreover, the EC50 on adrenergic α2 receptor [5] is 144 nM. In test [4], this compound had a median effective dose (ED50) of 0.004 µmol/kg. Also, the “in vivo functional potency (in words)” value in test [4] (rat, in vivo) is reported as “high in vivo functional potency”.
With `CCCN(CCC1CCCO1)[C@H]1CCc2c(ccc(O)c2O)C1` (stereo partly drawn) [Example 11], the Ki at Dopamine D1 receptor is 4270 nM. At Dopamine D2 receptor [1], the “Selectivity Ratio (D1 K1/D2 K1)” value was 141 and the Ki was 30 nM. On dopamine D2 receptor [2], the “Specificity Ratio (a2 A50/D2 A50)” value is 62 and the EC50 was found to be 1.29 nM. In addition, the EC50 on adrenergic α2 receptor [5] came out at 79.4 nM. The compound also registered an ED50 in test [4] of 0.010 µmol/kg.
For `CCCN(CCC1CCOC1)[C@H]1CCc2c(ccc(O)c2O)C1` (stereo partly drawn) [Example 14], the Ki at Dopamine D1 receptor worked out at 6610 nM. In addition, on Dopamine D2 receptor [1], the “Selectivity Ratio (D1 K1/D2 K1)” value turned out to be 34 and the Ki was 195 nM. Also, at dopamine D2 receptor [2], the “Specificity Ratio (a2 A50/D2 A50)” value is 71 and the EC50 was 0.209 nM. Besides, at adrenergic α2 receptor [5], the EC50 turned out to be 14.8 nM. The compound further had a median effective dose (ED50) in test [4] of 0.030 µmol/kg.
On to `CCCN(CCOC1CCCC1)[C@H]1CCc2c(ccc(O)c2O)C1` [Example 6], for which the Ki at Dopamine D1 receptor turned out to be 5010 nM. On Dopamine D2 receptor [1], the “Selectivity Ratio (D1 K1/D2 K1)” value was determined as 98 and the Ki worked out at 51 nM. Besides, at dopamine D2 receptor [2], the “Specificity Ratio (a2 A50/D2 A50)” value was 537 and the EC50 was 0.162 nM. Moreover, the EC50 at adrenergic α2 receptor [5] is 87.1 nM. This compound also registered a median effective dose (ED50) in test [4] of 0.008 µmol/kg.
On to `CCCN(CCOCC1CC1)[C@H]1CCc2c(ccc(O)c2O)C1` [Example 3], for which the Ki on Dopamine D1 receptor was found to be 4790 nM; on Dopamine D2 receptor [1] it was 65 nM. The “Selectivity Ratio (D1 K1/D2 K1)” value on Dopamine D2 receptor [1] came out at 74. In addition, the “Specificity Ratio (a2 A50/D2 A50)” value on dopamine D2 receptor [2] was found to be 1860. In addition, the EC50 on dopamine D2 receptor [2] is 0.105 nM; on adrenergic α2 receptor [5], 195 nM. In addition, the 50% effective dose (ED50) in test [4] came to 0.007 µmol/kg.
For `CCCN(CCC1CCCCO1)[C@H]1CCc2c(O)cccc2C1` (stereo partly drawn) [Example 23], the Ki at Dopamine D1 receptor stood at 7410 nM. For the same compound, at Dopamine D2 receptor [1], the “Selectivity Ratio (D1 K1/D2 K1)” value is 68 and the Ki turned out to be 110 nM. At dopamine D2 receptor [2], the “Specificity Ratio (a2 A50/D2 A50)” value is on record as greater than 22900 and the EC50 turned out to be 0.437 nM. Further, the EC50 on adrenergic α2 receptor [5] is greater than 10000 nM. For the same compound, the ED50 in test [4] is 0.010 µmol/kg.
As to `CCCN(CCCOC(C)C)[C@H]1CCc2c(ccc(O)c2O)C1` [Example 13], the Ki on Dopamine D1 receptor is 5750 nM. On Dopamine D2 receptor [1], the “Selectivity Ratio (D1 K1/D2 K1)” value came to 113 and the Ki was determined as 51 nM. Besides, at dopamine D2 receptor [2], the “Specificity Ratio (a2 A50/D2 A50)” value came out at 914 and the EC50 was 0.102 nM. At adrenergic α2 receptor [5], the EC50 turned out to be 93.3 nM. In test [4], this compound registered a median effective dose (ED50) of 0.006 µmol/kg.
For the compound `CCCN(CCC1CCCCO1)[C@H]1CCc2c(ccc(O)c2O)C1` (stereo partly drawn) [Example 12], the Ki at Dopamine D1 receptor worked out at 5490 nM. For the same compound, on Dopamine D2 receptor [1], the “Selectivity Ratio (D1 K1/D2 K1)” value was found to be 224 and the Ki was 25 nM. At dopamine D2 receptor [2], the “Specificity Ratio (a2 A50/D2 A50)” value is given as 1000 and the EC50 turned out to be 0.2 nM. The EC50 at adrenergic α2 receptor [5] stood at 199 nM. The compound also returned an ED50 in test [4] of 0.030 µmol/kg.
For `CCCOCCN(CCC)[C@H]1CCc2c(ccc(O)c2O)C1` [Example 7, (S)-5,6,7,8-tetrahydro-6-[[2-(propoxy)ethyl]propylamino]-1,2-naphthalenediol], the Ki on Dopamine D1 receptor came to 4680 nM. On Dopamine D2 receptor [1], the “Selectivity Ratio (D1 K1/D2 K1)” value amounted to 36 and the Ki was determined as 129 nM. Further, at dopamine D2 receptor [2], the “Specificity Ratio (a2 A50/D2 A50)” value is 186 and the EC50 was found to be 0.794 nM. Further, the EC50 on adrenergic α2 receptor [5] came out at 148 nM. In addition, the ED50 in test [4] was determined as 0.002 µmol/kg.
Regarding `CCCN(CCOC1CCCC1)[C@H]1CCc2c(O)cccc2C1` [Example 16], the Ki at Dopamine D1 receptor turned out to be 7940 nM. In addition, on Dopamine D2 receptor [1], the “Selectivity Ratio (D1 K1/D2 K1)” value was 129 and the Ki is 62 nM. Moreover, on dopamine D2 receptor [2], the “Specificity Ratio (a2 A50/D2 A50)” value was greater than 19500 and the EC50 is 0.513 nM. Besides, on adrenergic α2 receptor [5], the EC50 was greater than 10000 nM. The ED50 in test [4] worked out at 0.090 µmol/kg.
As to `CCCN(CC1CCOC1)[C@H]1CCc2c(O)cccc2C1.Cl` (stereo partly drawn) [Example 21, (6S)-5,6,7,8-tetrahydro-6-[[(tetrahydro-3-furanyl)methyl]propylamino]-1-naphthalenol, hydrochloride], the results for the Ki at Dopamine D1 receptor and at Dopamine D2 receptor [1] were 3630 nM and 151 nM, respectively. The “Selectivity Ratio (D1 K1/D2 K1)” value on Dopamine D2 receptor [1] is on record as 24. In addition, at dopamine D2 receptor [2], the “Specificity Ratio (a2 A50/D2 A50)” value amounted to 282. The figures for the EC50 at dopamine D2 receptor [2] and at adrenergic α2 receptor [5] were 0.977 nM and 275 nM, respectively. The same compound registered an ED50 in test [4] of 0.009 µmol/kg.
